Some test systems named below: A498; COLO 205; DU-145; HCT-15; HT-29; Hs-578T; K562; KM12; M14; MDA-MB-231; NCI-H522; NCI/ADR-RES; OVCAR-8; SF-539; SK-MEL-28; SNB-75; SW-620; HOP-92; SK-MEL-5.
Common to all, as to test: NCI-60 cell line screen, 48 h

SMILES strings stand for the structures.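 Cells were grown in 96-well plates and exposed to each compound for 48 hours at five concentrations; endpoints were interpolated linearly between bracketing concentrations, or set to the highest concentration if not reached. GI50: concentration for 50% inhibition of growth.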 Calls of active or inactive are those of the source. No stated cut-off is given here; in the data, active = GI50 up to about 1.1 µM and inactive = higher.

For the molecule `O=c1cc(N2CCOCC2)[nH]c(=O)n1-c1ccc(F)cc1`, the GI50 with A498 is > 100 µM (inactive); in the assay on COLO 205, > 100 µM (inactive); in the assay on DU-145, > 100 µM (inactive); with HCT-15 it was above 100 µM; in the assay with HT-29 it was > 100 µM (inactive); in the assay on Hs-578T, > 100 µM (inactive). The GI50 with K562, with KM12, in the assay with M14, in the assay on MDA-MB-231, in the assay with NCI-H522 and in the assay with NCI/ADR-RES was > 100 µM (inactive) throughout. The GI50 in the assay on OVCAR-8, with SF-539, with SK-MEL-28, in the assay with SNB-75 and with SW-620 was > 100 µM (inactive) in each case.
In the case of `C[C@@H](C(=O)O)N1C(c2ccco2)=C(/C(C=O)=C\c2ccco2)C(=O)/C1=C\c1ccco1`, the GI50 is > 100 µM (inactive) in the assay on A498; > 100 µM (inactive) in the assay on COLO 205; > 100 µM (inactive) in the assay on DU-145; above 100 µM in the assay on HCT-15; > 100 µM (inactive) in the assay with HOP-92; > 100 µM (inactive) in the assay on HT-29. The GI50 in the assay on Hs-578T, with K562, with KM12, in the assay on M14, in the assay with MDA-MB-231 and in the assay with NCI-H522 was > 100 µM (inactive) in each case. Also, the GI50 in the assay with NCI/ADR-RES, in the assay with OVCAR-8, in the assay on SF-539, in the assay on SK-MEL-28, with SK-MEL-5 and in the assay on SW-620 was > 100 µM (inactive) each time.
For `NS(=O)(=O)c1nnc(NC(=S)NC(=O)Nc2ccc(Cl)c(Cl)c2)s1`, the GI50 with COLO 205 was 19.5 µM (inactive); in the assay on DU-145, 20.8 µM (inactive); with HCT-15, 19.7 µM; in the assay with HOP-92, 13.5 µM (inactive); in the assay with HT-29 it was 25.5 µM (inactive); in the assay with Hs-578T it was 24.3 µM (inactive). Further, the GI50 is 30.4 µM (inactive) with K562; 18.7 µM (inactive) in the assay with KM12; 17.9 µM (inactive) in the assay on M14; 30.4 µM (inactive) with MDA-MB-231; 14.8 µM (inactive) in the assay with NCI-H522; 25.4 µM (inactive) in the assay with NCI/ADR-RES. Further, the GI50 in the assay with OVCAR-8 was 22.1 µM (inactive); with SF-539, 2.39 µM (inactive); with SK-MEL-28, 37.1 µM (inactive); in the assay on SK-MEL-5 it was 21.2 µM (inactive); in the assay on SNB-75, 17.4 µM (inactive); with SW-620, 22.5 µM (inactive).
Turning to `CC/C(=N\NC(=O)c1cccnc1)c1ccc2c(c1)OCCO2`, the GI50 is > 100 µM (inactive) in the assay on A498; > 100 µM (inactive) in the assay with COLO 205; > 100 µM (inactive) in the assay with DU-145; above 100 µM with HCT-15; > 100 µM (inactive) in the assay with HT-29; 12.4 µM (inactive) in the assay on Hs-578T. Moreover, the GI50 with K562 is 76 µM (inactive); with KM12 it was 96.6 µM (inactive); with M14, > 100 µM (inactive); with MDA-MB-231 it was 74.8 µM (inactive); with NCI-H522, 29.1 µM (inactive); with NCI/ADR-RES it was > 100 µM (inactive). The GI50 is > 100 µM (inactive) in the assay on OVCAR-8; > 100 µM (inactive) with SF-539; > 100 µM (inactive) with SK-MEL-28; 33.7 µM (inactive) in the assay on SK-MEL-5; > 100 µM (inactive) with SNB-75; > 100 µM (inactive) in the assay on SW-620.
`CC(C)C1OC2(C)OC(=N)C1(C#N)C(C#N)(C#N)C2C` (stereo unspecified): the GI50 is 67.5 µM (inactive) in the assay with A498; 14.5 µM (inactive) in the assay on COLO 205; 28.4 µM (inactive) in the assay with DU-145; 12.8 µM with HCT-15; 17.7 µM (inactive) in the assay with HOP-92; 16.3 µM (inactive) in the assay with HT-29. Further, the GI50 in the assay with Hs-578T is 24.3 µM (inactive); in the assay with K562 it was 30 µM (inactive); with KM12, 52 µM (inactive); in the assay on M14 it was 14.6 µM (inactive); in the assay on MDA-MB-231 it was 15.4 µM (inactive); in the assay on NCI/ADR-RES, 54.8 µM (inactive). For the same molecule, the GI50 in the assay with OVCAR-8 is 25.8 µM (inactive); in the assay on SF-539, 24.6 µM (inactive); in the assay with SK-MEL-28, 37.1 µM (inactive); with SK-MEL-5, 13.7 µM (inactive); with SNB-75, 32.1 µM (inactive); in the assay with SW-620, 26.6 µM (inactive).
For the molecule `COc1ccc(C2C3=C(N=C4SC(C(C)=O)=C(C)N42)c2ccccc2CC3)cc1` (stereo unspecified), the GI50 was > 100 µM (inactive) in the assay with A498; > 100 µM (inactive) in the assay on COLO 205; > 100 µM (inactive) with DU-145; above 100 µM with HCT-15; > 100 µM (inactive) in the assay with HOP-92; 6.52 µM (inactive) in the assay on HT-29. Moreover, the GI50 in the assay on Hs-578T was 69 µM (inactive); with KM12 it was 38.6 µM (inactive); in the assay with M14 it was > 100 µM (inactive); in the assay with MDA-MB-231, > 100 µM (inactive); with NCI/ADR-RES, > 10 µM (inactive); in the assay on OVCAR-8 it was > 100 µM (inactive). Further, the GI50 was > 100 µM (inactive) in the assay with SF-539; > 100 µM (inactive) with SK-MEL-28; 50.5 µM (inactive) with SK-MEL-5; > 100 µM (inactive) with SNB-75; > 100 µM (inactive) in the assay with SW-620.
Consider `COC(=O)c1ccccc1C1CN=NC12Cc1c(C)c3c(c(C)c1C2=O)CCC3` (stereo unspecified), for which the GI50 with A498 is > 100 µM (inactive); in the assay on COLO 205, > 100 µM (inactive); in the assay on DU-145, > 100 µM (inactive); in the assay on HCT-15, above 100 µM; in the assay with HOP-92, 22.5 µM (inactive); in the assay on HT-29, 40.1 µM (inactive). For the same molecule, the GI50 in the assay with Hs-578T is > 100 µM (inactive); in the assay with K562, > 100 µM (inactive); in the assay with KM12, > 100 µM (inactive); with M14, > 100 µM (inactive); in the assay on MDA-MB-231, 23.6 µM (inactive); in the assay with NCI-H522, 33.7 µM (inactive). Moreover, the GI50 is > 100 µM (inactive) in the assay on NCI/ADR-RES; > 100 µM (inactive) in the assay on OVCAR-8; > 100 µM (inactive) with SF-539; > 100 µM (inactive) in the assay with SK-MEL-28; > 100 µM (inactive) with SK-MEL-5; 40.6 µM (inactive) in the assay on SNB-75. Further, the GI50 with SW-620 is > 100 µM (inactive).
As to `N#CC(Nc1ccccc1)c1ccc(C(C#N)Nc2ccccc2)cc1` (stereo unspecified), the GI50 is > 100 µM (inactive) with A498; 27.1 µM (inactive) with COLO 205; 44.1 µM (inactive) in the assay with DU-145; 18.2 µM in the assay with HCT-15; 28.1 µM (inactive) in the assay on HOP-92; 20.8 µM (inactive) with HT-29. The GI50 with Hs-578T is > 100 µM (inactive); in the assay on K562, 0.724 µM (active); in the assay on KM12 it was > 100 µM (inactive); with M14, 13.7 µM (inactive); in the assay on MDA-MB-231, > 100 µM (inactive); in the assay with NCI-H522, > 100 µM (inactive). Further, the GI50 in the assay on NCI/ADR-RES was 46.7 µM (inactive); with OVCAR-8, > 100 µM (inactive); with SF-539, 25.7 µM (inactive); with SK-MEL-28 it was 41.2 µM (inactive); with SK-MEL-5 it was 20.3 µM (inactive); in the assay on SW-620, 20.2 µM (inactive).
On to `C=CC(C)(C)/C=C/c1ccc(O)cc1`, for which the GI50 in the assay on A498 is 28.3 µM (inactive); with COLO 205, 35.5 µM (inactive); with DU-145 it was 40.4 µM (inactive); with HCT-15 it was 39.1 µM; with HOP-92, 47 µM (inactive); in the assay on HT-29 it was 38.2 µM (inactive). The GI50 in the assay on Hs-578T is 39.2 µM (inactive); in the assay on KM12 it was 39.3 µM (inactive); in the assay on M14 it was 43.1 µM (inactive); in the assay on MDA-MB-231, 36.4 µM (inactive); in the assay with NCI-H522 it was 34.4 µM (inactive); with NCI/ADR-RES, 47.9 µM (inactive). Further, the GI50 with OVCAR-8 was 39.7 µM (inactive); with SF-539, 30.1 µM (inactive); in the assay on SK-MEL-28, 35.9 µM (inactive); with SK-MEL-5, 38.5 µM (inactive); in the assay on SW-620, 33.3 µM (inactive).
For `COC(=O)/C=C\C(C#N)(C#N)/N=C/c1ccc(Br)s1`, the GI50 in the assay with A498 was 17.7 µM (inactive); in the assay on COLO 205, 2.31 µM (inactive); in the assay with DU-145, 10.7 µM (inactive); in the assay on HCT-15, 2.18 µM; in the assay on HOP-92, 1.93 µM (inactive); in the assay on HT-29 it was 2.35 µM (inactive). Besides, the GI50 in the assay on Hs-578T was 25.3 µM (inactive); with K562, 4.3 µM (inactive); in the assay with KM12, 16.3 µM (inactive); with M14, 3.1 µM (inactive); in the assay on MDA-MB-231, 2.18 µM (inactive); in the assay with NCI-H522 it was 1.07 µM (active). The GI50 in the assay on NCI/ADR-RES was 18.6 µM (inactive); with OVCAR-8, 3.98 µM (inactive); with SK-MEL-28, 16.1 µM (inactive); in the assay on SK-MEL-5 it was 11.9 µM (inactive); with SNB-75, 15.2 µM (inactive); with SW-620, 2.07 µM (inactive).
Turning to `Cc1cc(S(=O)(=O)Nc2nc(N)n[nH]2)c(S)cc1Cl`, the GI50 in the assay with A498 is > 10 µM (inactive); in the assay on COLO 205, > 10 µM (inactive); in the assay on DU-145 it was > 10 µM (inactive); in the assay with HCT-15, above 10 µM; with HT-29, > 10 µM (inactive); in the assay on Hs-578T, > 10 µM (inactive). Also, the GI50 in the assay on K562, in the assay on KM12, in the assay with M14, in the assay with MDA-MB-231, in the assay on NCI-H522 and in the assay on NCI/ADR-RES was > 10 µM (inactive) in each case. Also, the GI50 with OVCAR-8, with SF-539, in the assay on SK-MEL-28, in the assay on SK-MEL-5, with SNB-75 and in the assay on SW-620 was > 10 µM (inactive) throughout.
